Assay results taken from BindingDB's records for patent US12077506 (Nikang Therapeutics, 2024).

Molecular target: Endothelial PAS domain-containing protein 1 (Homo sapiens, UniProt Q99814)
Test: VEGF ELISA Assay
Method: Four hours later, compounds were dispensed into wells by Tecan D300e digital dispenser with starting concentration of 10 uM and log of dilution down to 1 nM as final concentration. Each concentration of treatment was performed in duplicate. About 20 hours later, medium was removed and fresh medium was added, followed by compounds treatment as described above. After 24 hours, cell culture medium was collected to determine VEGF concentration using an ELISA kit (R&D systems, cat #DVE00) following the manufacturer's instruction.

Endothelial PAS domain-containing protein 1, sequence (Q99814 whole entry, the tested form may be a part): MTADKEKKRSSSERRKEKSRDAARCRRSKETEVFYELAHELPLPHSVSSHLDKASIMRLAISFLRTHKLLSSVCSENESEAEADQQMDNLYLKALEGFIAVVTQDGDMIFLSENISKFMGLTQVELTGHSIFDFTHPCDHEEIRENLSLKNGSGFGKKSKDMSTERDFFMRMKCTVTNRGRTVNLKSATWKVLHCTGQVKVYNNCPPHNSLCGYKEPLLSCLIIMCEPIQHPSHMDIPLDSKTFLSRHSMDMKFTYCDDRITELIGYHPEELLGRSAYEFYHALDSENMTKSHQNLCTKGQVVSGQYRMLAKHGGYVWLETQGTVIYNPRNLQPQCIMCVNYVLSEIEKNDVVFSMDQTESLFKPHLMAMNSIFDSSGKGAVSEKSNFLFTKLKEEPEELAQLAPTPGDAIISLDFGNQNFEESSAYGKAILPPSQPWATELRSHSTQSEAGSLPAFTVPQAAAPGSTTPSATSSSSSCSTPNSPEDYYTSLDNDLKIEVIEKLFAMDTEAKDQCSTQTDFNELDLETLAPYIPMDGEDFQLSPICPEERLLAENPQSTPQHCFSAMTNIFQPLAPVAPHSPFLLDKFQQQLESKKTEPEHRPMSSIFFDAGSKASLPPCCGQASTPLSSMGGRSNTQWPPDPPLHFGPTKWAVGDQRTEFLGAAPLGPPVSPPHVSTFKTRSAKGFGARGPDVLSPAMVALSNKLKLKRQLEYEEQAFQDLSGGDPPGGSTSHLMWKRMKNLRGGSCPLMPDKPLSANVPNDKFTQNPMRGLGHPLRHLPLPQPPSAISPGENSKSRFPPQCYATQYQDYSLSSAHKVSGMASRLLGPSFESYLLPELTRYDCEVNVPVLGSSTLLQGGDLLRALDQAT

EC50: 4 nM
SMILES: OC1c2c(ccc(Oc3cc(F)cc(F)c3)c2C(F)F)C(F)(F)C1(F)F (stereo unspecified) [US12077506, Compound I-4]
